From US20140329782A1, “COMBINED THERAPEUTIC AGENT” (priority 2011, published 2014)

What was measured:
Crohn's disease = conditions: cited from earlier work
[1] = in vivo; cited from earlier work
[2] = tested on: peripheral mononuclear cells isolated from the blood of the test subjects; conditions: 100 μg/ml calcitriol, cited from earlier work
[3] = tested on: patients suffering from persistent asthma (GINA II); test: Use and efficacy study in patients with persistent asthma (GINA II); format: in vivo, human
Description: • In the context of a first set of investigations, 11 patients from 32 to 65 years of age suffering from persistent asthma (GINA II) were treated with a combination therapy composed of inhaled glucocorticoid (beclomethasone, 2×200 μg/which inhalational) and inhaled long-acting beta-2 sympathomimetics (LABA, salmeterol) and also, perorally, theophylline. After one week of therapy, it was possible to achieve mild improvement of pulmonary function in 5 of the 11 test subjects. […] In two of the treated patients, it was also possible to reduce the beta-2 agonist demand by 10%. A further group based on 9 patients from 39 to 70 years of age having an identical indication, i.e., persistent asthma (GINA II), who were similarly administered with the abovementioned combination therapy composed of inhaled glucocorticoid and inhaled long-acting beta-2 sympathomimetics and also theophylline additionally received vitamin D for one week in a daily dose of 80 μg. After one week of therapy with the aforementioned dose, it was possible to achieve a mild to moderate improvement in pulmonary function in 6 of the 9 test subjects. After continued long-term therapy for 12 weeks, the persistent bronchial asthma had stabilized insofar as it was possible to reduce the inhaled glucocorticoid need by up to 60% in 7 of the 9 patients and it was possible to even completely temporarily discontinue the inhaled glucocorticoids in 1 of the 9 patients. […] In 4 of the treated patients, it was also possible to reduce the beta-2 agonist need by up to 40%.

[4] = after long-term therapy for 12 weeks

Cn1cnc([N+](=O)[O-])c1Sc1ncnc2nc[nH]c12 [azathioprine]
remission (Crohn's disease; maintaining remission): 83%

CCCC1O[C@@H]2C[C@H]3[C@@H]4CCC5=CC(=O)C=C[C@]5(C)[C@H]4[C@@H](O)C[C@]3(C)[C@]2(C(=O)CO)O1 (some centres unmarked) [budesonide]
systemic adverse effects (Crohn's disease; 6 mg of budesonide): frequent systemic adverse effects with cortisol suppression

C=C1CC[C@H](O)C/C1=C/C=C1\CCC[C@]2(C)[C@@H]([C@H](C)CCCC(C)(C)O)CC[C@@H]12 [calcifediol, 25-Hydroxyvitamin D3]
half life [1]: about 2.5 weeks

C=C1/C(=C\C=C2/CCC[C@]3(C)[C@@H]([C@H](C)CCCC(C)(C)O)CC[C@@H]23)C[C@@H](O)C[C@@H]1O [calcitriol, 1,25-dihydroxyvitamin D3]
production of interferon gamma [2]: reduces | production of interleukin 10 [2]: stimulates | inhibition of TNF-alpha production by patient group ([2]; Crohn's disease patients vs healthy): only in cells from patients suffering from Crohn's disease and not in cells from healthy patients | production of TNF-alpha in peripheral mononuclear cells ([2]; cells from patients suffering from inflammatory bowel diseases): could be lowered

vitamin D
patients in whom inhaled glucocorticoids could be completely temporarily discontinued ([3]; after 12 weeks): 1 of the 9 | patients in whom the beta-2 agonist demand could be reduced ([3]; after 12 weeks): 4 | patients in whom the inhaled glucocorticoid demand could be reduced ([3]; after 12 weeks): 7 of the 9 | reduction of the beta-2 agonist demand [3, 4]: up to 40% | reduction of the inhaled glucocorticoid demand [3, 4]: up to 60% | test subjects with improvement of pulmonary function ([3]; after one week of therapy): 6 of the 9 | tolerability ([3]; vitamin D 80 μg daily added to the combination therapy): well tolerated with no adverse effects
